Reference: ChEMBL document CHEMBL5335776, “Development, validation, and evaluation of a deep learning model to screen cyclin-dependent kinase 12 inhibitors in cancers” (Eur J Med Chem, 2023)

Columns and labels:
[1] = test system: BT-474; assay: Cytotoxicity against human BT-474 cells incubated for 48 hrs by CCK-8 reagent microplate reader assay; assay type: functional, cell-based; settings: BT-474, 48 h
[2] = target: Cyclin-dependent kinase 13/Cyclin-K (Homo sapiens, UniProt Q14004); assay: Inhibition of CDK13/Cyclin K (unknown origin) preincubated for 10 mins followed by substrate and ATP addition measured after 200 mins by ADP-Glo luminescence assay; assay type: protein-complex assay
Sequence of Cyclin-dependent kinase 13/Cyclin-K (Q14004 whole entry): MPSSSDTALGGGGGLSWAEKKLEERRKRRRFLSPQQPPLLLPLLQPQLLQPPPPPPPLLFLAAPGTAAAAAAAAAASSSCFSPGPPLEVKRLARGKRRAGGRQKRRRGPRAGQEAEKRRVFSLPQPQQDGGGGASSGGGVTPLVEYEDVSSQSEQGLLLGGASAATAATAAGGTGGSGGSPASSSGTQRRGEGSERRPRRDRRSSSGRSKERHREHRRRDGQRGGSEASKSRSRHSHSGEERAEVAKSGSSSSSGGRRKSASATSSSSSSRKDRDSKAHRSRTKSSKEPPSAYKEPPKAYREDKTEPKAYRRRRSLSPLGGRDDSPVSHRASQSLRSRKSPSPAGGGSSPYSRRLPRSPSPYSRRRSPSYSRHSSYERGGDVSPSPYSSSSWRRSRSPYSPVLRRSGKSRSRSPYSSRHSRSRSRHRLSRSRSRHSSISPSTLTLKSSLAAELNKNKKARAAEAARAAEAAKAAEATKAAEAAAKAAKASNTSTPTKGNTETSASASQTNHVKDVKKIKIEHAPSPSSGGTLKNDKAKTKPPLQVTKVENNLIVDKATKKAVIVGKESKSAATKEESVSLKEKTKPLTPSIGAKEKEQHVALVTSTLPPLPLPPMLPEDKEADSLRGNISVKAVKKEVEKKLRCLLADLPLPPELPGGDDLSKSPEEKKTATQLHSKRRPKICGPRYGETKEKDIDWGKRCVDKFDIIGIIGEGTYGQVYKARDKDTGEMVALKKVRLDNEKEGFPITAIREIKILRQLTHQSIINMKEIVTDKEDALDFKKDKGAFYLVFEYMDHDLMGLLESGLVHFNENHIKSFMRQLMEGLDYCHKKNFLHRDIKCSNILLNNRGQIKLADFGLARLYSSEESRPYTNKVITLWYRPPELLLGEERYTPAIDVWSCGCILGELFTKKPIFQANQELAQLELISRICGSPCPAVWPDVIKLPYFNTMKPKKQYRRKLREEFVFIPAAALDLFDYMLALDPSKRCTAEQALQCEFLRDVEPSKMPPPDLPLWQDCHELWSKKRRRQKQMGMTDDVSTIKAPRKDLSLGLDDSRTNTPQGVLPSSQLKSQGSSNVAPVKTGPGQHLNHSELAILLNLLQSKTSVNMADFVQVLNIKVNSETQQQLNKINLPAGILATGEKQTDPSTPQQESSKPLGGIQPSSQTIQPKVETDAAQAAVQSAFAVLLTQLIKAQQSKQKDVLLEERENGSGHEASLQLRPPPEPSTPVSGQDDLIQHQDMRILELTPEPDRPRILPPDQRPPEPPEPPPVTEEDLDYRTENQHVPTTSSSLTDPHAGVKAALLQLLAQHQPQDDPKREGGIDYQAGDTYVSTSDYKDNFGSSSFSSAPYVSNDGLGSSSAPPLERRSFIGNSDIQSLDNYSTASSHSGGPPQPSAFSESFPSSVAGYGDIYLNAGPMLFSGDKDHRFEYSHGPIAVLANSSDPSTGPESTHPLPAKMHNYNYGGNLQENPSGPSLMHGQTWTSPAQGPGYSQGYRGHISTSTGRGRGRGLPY
Sequence of Cyclin-dependent kinase 13/Cyclin-K (O75909 whole entry, further chain): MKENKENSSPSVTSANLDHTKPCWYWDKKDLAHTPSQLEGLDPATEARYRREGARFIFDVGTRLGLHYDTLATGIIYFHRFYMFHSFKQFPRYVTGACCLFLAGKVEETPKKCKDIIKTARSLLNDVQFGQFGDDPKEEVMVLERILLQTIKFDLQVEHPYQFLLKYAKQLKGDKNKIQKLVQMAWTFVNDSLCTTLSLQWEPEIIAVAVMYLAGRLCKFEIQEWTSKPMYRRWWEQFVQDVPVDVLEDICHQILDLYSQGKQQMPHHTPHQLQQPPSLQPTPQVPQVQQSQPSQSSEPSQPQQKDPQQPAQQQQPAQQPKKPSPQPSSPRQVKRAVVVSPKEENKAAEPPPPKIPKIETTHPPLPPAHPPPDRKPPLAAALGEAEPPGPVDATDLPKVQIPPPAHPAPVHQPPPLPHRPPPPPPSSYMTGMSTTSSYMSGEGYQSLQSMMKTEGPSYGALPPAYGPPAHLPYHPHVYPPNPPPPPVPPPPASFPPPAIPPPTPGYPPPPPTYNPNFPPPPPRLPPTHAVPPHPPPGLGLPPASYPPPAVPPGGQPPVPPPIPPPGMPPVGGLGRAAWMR

[3] = target: CDK12/Cyclin K (Homo sapiens, UniProt Q9NYV4); assay: Inhibition of CDK12/Cyclin K (unknown origin) preincubated for 10 mins followed by substrate and ATP addition measured after 200 mins by ADP-Glo luminescence assay; assay type: protein-complex assay
Sequence of CDK12/Cyclin K (O75909 whole entry): as the sequence (O75909 whole entry, further chain) above
Sequence of CDK12/Cyclin K (Q9NYV4 whole entry): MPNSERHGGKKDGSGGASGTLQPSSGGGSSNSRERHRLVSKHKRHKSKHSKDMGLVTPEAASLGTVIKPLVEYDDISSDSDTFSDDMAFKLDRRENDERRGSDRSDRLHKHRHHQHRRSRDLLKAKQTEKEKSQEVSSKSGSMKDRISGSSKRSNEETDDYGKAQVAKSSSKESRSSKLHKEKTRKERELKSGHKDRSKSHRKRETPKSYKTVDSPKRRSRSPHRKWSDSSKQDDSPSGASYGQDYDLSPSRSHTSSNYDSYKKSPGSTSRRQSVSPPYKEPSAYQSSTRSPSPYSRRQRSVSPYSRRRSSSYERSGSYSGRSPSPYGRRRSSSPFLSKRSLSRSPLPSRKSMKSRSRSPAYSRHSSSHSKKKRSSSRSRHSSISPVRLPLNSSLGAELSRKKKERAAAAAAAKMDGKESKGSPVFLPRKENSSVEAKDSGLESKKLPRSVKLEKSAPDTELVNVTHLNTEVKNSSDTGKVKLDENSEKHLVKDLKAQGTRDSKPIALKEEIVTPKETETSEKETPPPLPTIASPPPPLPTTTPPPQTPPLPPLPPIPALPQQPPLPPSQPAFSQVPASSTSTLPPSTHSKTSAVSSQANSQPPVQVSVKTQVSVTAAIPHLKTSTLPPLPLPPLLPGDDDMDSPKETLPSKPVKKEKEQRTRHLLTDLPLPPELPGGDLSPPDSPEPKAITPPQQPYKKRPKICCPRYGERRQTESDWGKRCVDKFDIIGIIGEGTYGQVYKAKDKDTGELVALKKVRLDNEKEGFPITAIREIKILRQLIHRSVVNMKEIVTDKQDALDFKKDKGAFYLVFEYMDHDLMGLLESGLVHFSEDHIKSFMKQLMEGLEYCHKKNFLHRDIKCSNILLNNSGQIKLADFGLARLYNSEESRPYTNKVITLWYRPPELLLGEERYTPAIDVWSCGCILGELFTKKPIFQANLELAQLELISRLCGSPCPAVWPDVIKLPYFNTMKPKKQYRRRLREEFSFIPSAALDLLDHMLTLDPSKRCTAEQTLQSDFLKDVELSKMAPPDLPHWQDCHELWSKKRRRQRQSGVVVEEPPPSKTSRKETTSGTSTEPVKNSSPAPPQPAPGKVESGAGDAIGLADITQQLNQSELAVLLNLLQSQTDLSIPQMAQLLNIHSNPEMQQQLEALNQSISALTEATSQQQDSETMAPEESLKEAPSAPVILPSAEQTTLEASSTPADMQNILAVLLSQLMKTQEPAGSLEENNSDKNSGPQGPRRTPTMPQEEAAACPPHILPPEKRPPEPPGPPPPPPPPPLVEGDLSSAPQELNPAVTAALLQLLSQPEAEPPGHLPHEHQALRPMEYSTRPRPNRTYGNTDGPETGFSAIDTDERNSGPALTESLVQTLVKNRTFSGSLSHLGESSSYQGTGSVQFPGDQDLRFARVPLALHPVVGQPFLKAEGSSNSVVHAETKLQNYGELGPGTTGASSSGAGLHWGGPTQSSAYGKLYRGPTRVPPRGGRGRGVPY

[4] = target: T1, CDK12/Cyclin K (Homo sapiens) (UniProt O75909+Q9NYV4); assay: Inhibition of CDK12/Cyclin K (unknown origin) at 1 uM preincubated for 10 mins followed by substrate and ATP addition measured after 200 mins by ADP-Glo luminescence assay relative to control; assay type: protein-complex assay; settings: time 210.0 min
T1 sequence (O75909 whole entry, looked up): as the sequence (O75909 whole entry, further chain) above
T1 sequence (Q9NYV4 whole entry, looked up): as the sequence (Q9NYV4 whole entry) above

[5] = target: T1, CDK12/Cyclin K (Homo sapiens); assay: Inhibition of CDK12/Cyclin K (unknown origin) at 0.1 uM preincubated for 10 mins followed by substrate and ATP addition measured after 200 mins by ADP-Glo luminescence assay relative to control; assay type: protein-complex assay; settings: time 210.0 min
[6] = target: T1, CDK12/Cyclin K (Homo sapiens); assay: Inhibition of CDK12/Cyclin K (unknown origin) at 10 uM preincubated for 10 mins followed by substrate and ATP addition measured after 200 mins by ADP-Glo luminescence assay relative to control; assay type: protein-complex assay; settings: time 210.0 min

Work on Cn1ncc(-c2nc(N[C@H]3CC[C@H](N)CC3)ncc2F)c1CC1CC1 yielded an IC50 [1] of 11.3 µM, an IC50 [2] of 0.0215 µM and an IC50 [3] of 0.053 µM.

Work on Cc1cc(O)c(-c2ccc([C@@H](C)CN)cc2)c2c1[nH]c(=O)c1sccc12 yielded an IC50 [1] of 6.26 µM.

For CN1CCN(Cc2ccc(NC(=O)c3n[nH]cc3Nc3ncnc4[nH]ccc34)cc2)CC1, the IC50 [1] was 23.9 µM, the IC50 [2] was 0.187 µM and the IC50 [3] was 0.183 µM.

Cn1cc(C2=C(c3cn(CCCSC(=N)N)c4ccccc34)C(=O)NC2=O)c2ccccc21 [BISINDOLYLMALEIMIDE IX] gave an IC50 [2] of 0.206 µM and an IC50 [3] of 0.143 µM.

With O=C1CC[C@@H](N2C(=O)c3cccc(OCCCCCOc4ccc(CC(=O)Nc5cc(C6CCC6)[nH]n5)cc4)c3C2=O)C(=O)N1 the IC50 [1] was 42.3 µM and the IC50 [3] was 0.749 µM.

C=CC(=O)Nc1cccc(Nc2cc(N3CCCC[C@H]3CCO)nc3c(CC)cnn23)c1 showed an IC50 [1] of 0.49 µM, an IC50 [2] of 0.0293 µM and an IC50 [3] of 0.0744 µM.

Molecule COc1cc(F)ccc1-c1cc(Nc2cc(C[S@@](C)(=N)=O)ccn2)ncc1F has an IC50 [1] of 0.853 µM and an IC50 [3] of 0.425 µM.

Work on CN(C)C/C=C/C(=O)Nc1ccc(C(=O)N2CCC[C@@H](Nc3ncc(Cl)c(-c4c[nH]c5ccccc45)n3)C2)cc1 yielded an inhibition [4] of 96.7%, an IC50 [2] of 0.04 µM and an inhibition [5] of 98.7%. It also gave an IC50 [3] of 0.152 µM and an inhibition [6] of 33%.

Molecule NCCCNc1ccc(Nc2nccc(Nc3cc(C4CC4)[nH]n3)n2)cc1 has an IC50 [1] of 9.11 µM, an IC50 [2] of 0.154 µM and an IC50 [3] of 0.26 µM.
